These results are taken from PubChem BioAssay AID248 (DTP/NCI, 2004).

Where “and” joins values, the source holds several entries; their conditions need not be identical. Equal entries are not always repeated. Inconclusive results and toxic doses are left out.

This test has as its system L1210 leukemia ip in BDF1 mice, survival T/C. The experiment in a line: NCI In Vivo Anticancer Drug Screen. Data for tumor model L1210 Leukemia (intraperitoneal) in B6D2F1 (BDF1) mice. The conditions noted are these: endpoint: mean survival time, higher = longer survival. The essentials:
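Survival endpoint. Drug-treated group vs vehicle group, expressed as T divided by C. Tumor passaged by transplantation.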

Setting [1] is: dose: 100.0 mg/kg/injection, schedule: Q01DX009 (ip), vehicle: saline with Tween-80.
Setting [2] is: dose: 200.0 mg/kg/injection, schedule: Q01DX009 (ip), vehicle: saline with Tween-80.
Setting [3] is: dose: 100.0 mg/kg/injection, schedule: Q01DX001 (ip), vehicle: carboxymethylcellulose (CMC).
Where [4] appears, read: dose: 200.0 mg/kg/injection, schedule: Q01DX001 (ip), vehicle: carboxymethylcellulose (CMC).
Setting [5] is: dose: 400.0 mg/kg/injection, schedule: Q01DX001 (ip), vehicle: carboxymethylcellulose (CMC).
The mark [6] stands for this setting: dose: 100.0 mg/kg/injection, schedule: Q04DX002 (ip), vehicle: Klucel (hydroxypropylcellulose) (HPC).
Setting [7] is: dose: 200.0 mg/kg/injection, schedule: Q04DX002 (ip), vehicle: Klucel (hydroxypropylcellulose) (HPC).
Where [8] appears, read: dose: 400.0 mg/kg/injection, schedule: Q04DX002 (ip), vehicle: Klucel (hydroxypropylcellulose) (HPC).
[9] abbreviates: dose: 100.0 mg/kg/injection, schedule: Q01DX009 (ip), vehicle: Klucel (hydroxypropylcellulose) (HPC).
[10] abbreviates: dose: 200.0 mg/kg/injection, schedule: Q01DX009 (ip), vehicle: Klucel (hydroxypropylcellulose) (HPC).
The mark [11] stands for this setting: dose: 400.0 mg/kg/injection, schedule: Q01DX009 (ip), vehicle: Klucel (hydroxypropylcellulose) (HPC).
Where [12] appears, read: dose: 400.0 mg/kg/injection, schedule: Q01DX001 (ip), vehicle: other.

For the compound `CCCCNC(=O)Oc1ccc(C(=O)OCCC)cc1`, the T/C (dose: 50.0 mg/kg/injection, schedule: Q01DX009 (ip), vehicle: saline with Tween-80) is 102 % of control and 106 % of control; the T/C (dose: 100.0 mg/kg/injection, schedule: Q01DX009 (ip), vehicle: other) is 110 % of control and 86 % of control; the T/C under setting [1] is 103 % of control and 104 % of control; the T/C (dose: 100.0 mg/kg/injection, schedule: Q04DX002 (ip), vehicle: other) was 100 % of control and 101 % of control; the T/C (dose: 200.0 mg/kg/injection, schedule: Q01DX009 (ip), vehicle: other) was 89 % of control; the T/C under setting [2] was 96 % of control and 103 % of control. For the same compound, the T/C reads like this: (dose: 200.0 mg/kg/injection, schedule: Q04DX002 (ip), vehicle: other) 93 % of control and 105 % of control; (dose: 400.0 mg/kg/injection, schedule: Q01DX009 (ip), vehicle: other) 93 % of control and 90 % of control; (dose: 400.0 mg/kg/injection, schedule: Q04DX002 (ip), vehicle: other) 96 % of control and 92 % of control.

As for `COc1ccc2ccccc2c1Br`, the T/C under setting [3] was 98 % of control, the T/C under setting [4] was 98 % of control and the T/C under setting [5] was 98 % of control.

As for `C[N+](C)(CCN1C(=O)c2ccc3c4c(ccc(c24)C1=O)C(=O)N(CC[N+](C)(C)Cc1ccccc1)C3=O)Cc1ccccc1`, the T/C was 105 % of control (dose: 0.1 mg/kg/injection, schedule: Q01DX001 (ip), vehicle: saline); 101 % of control (dose: 0.2 mg/kg/injection, schedule: Q01DX001 (ip), vehicle: saline); 110 % of control (dose: 0.4 mg/kg/injection, schedule: Q01DX001 (ip), vehicle: saline); 106 % of control (dose: 0.78 mg/kg/injection, schedule: Q01DX001 (ip), vehicle: saline).

Take `CCOC(=O)COc1cc(N)c(Cl)cc1Cl`: the T/C (dose: 100.0 mg/kg/injection, schedule: Q04DX002 (ip), vehicle: gum acacia) is 95 % of control; the T/C (dose: 200.0 mg/kg/injection, schedule: Q04DX002 (ip), vehicle: gum acacia) is 95 % of control; the T/C (dose: 400.0 mg/kg/injection, schedule: Q04DX002 (ip), vehicle: gum acacia) is 92 % of control.

`Clc1ccccc1-n1cc(-c2ccccc2)nn1`: the T/C was 114 % of control under setting [6], 108 % of control under setting [7] and 108 % of control under setting [8].

With `CCCCCP(=S)(CCCC)CCCCC`, the T/C is 98 % of control under setting [6], 94 % of control under setting [7] and 94 % of control under setting [8].

For `CCCCCCP(=O)(O)O`, the T/C under setting [1] was 88 % of control.

On to `O=S1CCCCO1` (stereo unspecified), for which the T/C (dose: 37.5 mg/kg/injection, schedule: Q01DX009 (ip), vehicle: saline) is 96 % of control; the T/C (dose: 75.0 mg/kg/injection, schedule: Q01DX001 (ip), vehicle: saline) was 101 % of control; the T/C (dose: 75.0 mg/kg/injection, schedule: Q01DX009 (ip), vehicle: saline) was 91 % of control; the T/C (dose: 150.0 mg/kg/injection, schedule: Q01DX001 (ip), vehicle: saline) is 101 % of control; the T/C (dose: 150.0 mg/kg/injection, schedule: Q01DX009 (ip), vehicle: saline) is 96 % of control; the T/C (dose: 300.0 mg/kg/injection, schedule: Q01DX001 (ip), vehicle: saline) is 104 % of control.

`C=CCN(CC=C)c1ccccc1`: the T/C under setting [9] is 93 % of control; the T/C (dose: 100.0 mg/kg/injection, schedule: Q04DX003 (ip), vehicle: Klucel (hydroxypropylcellulose) (HPC)) is 108 % of control; the T/C under setting [10] was 107 % of control; the T/C (dose: 200.0 mg/kg/injection, schedule: Q04DX003 (ip), vehicle: Klucel (hydroxypropylcellulose) (HPC)) was 101 % of control; the T/C under setting [11] is 112 % of control; the T/C (dose: 400.0 mg/kg/injection, schedule: Q04DX003 (ip), vehicle: Klucel (hydroxypropylcellulose) (HPC)) was 101 % of control.

Take `COc1cc(/C=N/N=C(N)N)ccc1O`: the T/C (dose: 15.0 mg/kg/injection, schedule: Q01DX Z (ip), vehicle: saline) is 95 % of control; the T/C (dose: 30.0 mg/kg/injection, schedule: Q01DX Z (ip), vehicle: saline) was 88 % of control; the T/C (dose: 60.0 mg/kg/injection, schedule: Q01DX Z (ip), vehicle: saline) is 101 % of control; the T/C (dose: 120.0 mg/kg/injection, schedule: Q01DX Z (ip), vehicle: saline) was 97 % of control; the T/C (dose: 240.0 mg/kg/injection, schedule: Q01DX Z (ip), vehicle: saline) is 89 % of control.

For `Nc1nc(N)c(CCCOc2ccccc2Cl)c(N)n1`, the T/C was 102 % of control (dose: 100.0 mg/kg/injection, schedule: Q01DX001 (ip), vehicle: Klucel (hydroxypropylcellulose) (HPC)) and 102 % of control (dose: 200.0 mg/kg/injection, schedule: Q01DX001 (ip), vehicle: Klucel (hydroxypropylcellulose) (HPC)).

`O=C1CCc2ccsc21`: the T/C is 97 % of control (dose: 100.0 mg/kg/injection, schedule: Q04DX002 (ip), vehicle: saline with Tween-80) and 97 % of control (dose: 200.0 mg/kg/injection, schedule: Q04DX002 (ip), vehicle: saline with Tween-80).

Turning to `NS(=O)(=O)c1ccc(NC(=O)Nc2cc(C(F)(F)F)ccc2Cl)cc1`, the T/C is 95 % of control under setting [9], 100 % of control under setting [10] and 98 % of control under setting [11].

As to `c1ccc2c(c1)CC1(Cc3ccccc3-2)C[N+]12CCCCC2`, the T/C (dose: 12.5 mg/kg/injection, schedule: Q04DX003 (ip), vehicle: saline) was 98 % of control; the T/C (dose: 25.0 mg/kg/injection, schedule: Q04DX003 (ip), vehicle: saline) was 98 % of control; the T/C (dose: 50.0 mg/kg/injection, schedule: Q04DX003 (ip), vehicle: saline) was 110 % of control.

For the compound `CCCCCCCCOC(=O)c1[nH]cnc1/N=N/N(C)CCCC`, the T/C was 107 % of control (dose: 100.0 mg/kg/injection, schedule: Q01DX001 (ip), vehicle: other); 107 % of control (dose: 200.0 mg/kg/injection, schedule: Q01DX001 (ip), vehicle: other); 102 % of control under setting [12].

Turning to `O=NN(CCCl)C(=O)NCc1ccc(-c2ccc(CNC(=O)N(CCCl)N=O)cc2)cc1`, the T/C was 156 % of control and 188 % of control (dose: 177.0 mg/kg/injection, schedule: Q01DX001 (ip), vehicle: other); 180 % of control (dose: 266.0 mg/kg/injection, schedule: Q01DX001 (ip), vehicle: other); 194 % of control under setting [12]; 159 % of control and 274 % of control (dose: 400.0 mg/kg/injection, schedule: Q01DX009 (ip), vehicle: carboxymethylcellulose (CMC)); 264 % of control (dose: 600.0 mg/kg/injection, schedule: Q01DX001 (ip), vehicle: other); 261 % of control (dose: 600.0 mg/kg/injection, schedule: Q01DX009 (ip), vehicle: carboxymethylcellulose (CMC)).

Turning to `COC(=O)c1ccc(N(C)CC/C(CN)=N/NC(N)=O)cc1`, the T/C under setting [3] was 96 % of control, the T/C under setting [4] was 96 % of control and the T/C under setting [5] is 102 % of control.

With `CCC1(O)C(=O)OCc2c1cc1n(c2=O)CCC1` (stereo unspecified), the T/C (dose: 12.5 mg/kg/injection, schedule: Q01DX001 (ip), vehicle: saline) was 113 % of control; the T/C (dose: 25.0 mg/kg/injection, schedule: Q01DX001 (ip), vehicle: saline) was 106 % of control and 110 % of control; the T/C (dose: 50.0 mg/kg/injection, schedule: Q01DX001 (ip), vehicle: saline) was 102 % of control; the T/C (dose: 100.0 mg/kg/injection, schedule: Q01DX001 (ip), vehicle: saline) is 101 % of control; the T/C (dose: 200.0 mg/kg/injection, schedule: Q01DX001 (ip), vehicle: saline) was 98 % of control.

Turning to `CCNc1nc(Cl)nc(N(CC)CC)n1`, the T/C reads like this: under setting [1], 91 % of control; under setting [2], 98 % of control; (dose: 400.0 mg/kg/injection, schedule: Q01DX009 (ip), vehicle: saline with Tween-80) 89 % of control.

In the case of `CCCCOCc1cc(CN2CCN(C)CC2)c(O)c2ncccc12`, the T/C was 89 % of control (dose: 25.0 mg/kg/injection, schedule: Q04DX002 (ip), vehicle: saline); 95 % of control (dose: 50.0 mg/kg/injection, schedule: Q04DX002 (ip), vehicle: saline); 89 % of control (dose: 100.0 mg/kg/injection, schedule: Q04DX002 (ip), vehicle: saline).
